Assay results: the supplement of paper PMC8882468
± gives the standard deviation of the averaged measurements.

Columns and labels:
Test in all cases: CTG-3D luminescence at 96 h relative to day-0 seeding control (ratio to day 0); higher = more growth / less cytotoxicity
[1] = test system: MDA-MB-231
Method: (§1)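 PDX-derived breast cancer organoids (PDxO) in 384-well Matrigel plates, 8-point dose (0.000000625-100 uM), 96 h at 37 C; CellTiter-Glo 3D luminescence normalised to the day-0 seeding control (mean of 4 technical replicates over mean of 4 day-0 wells).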

[2] = test system: HCI-001 (organoid from a triple-negative breast cancer xenograft)
Method: as §1

[3] = test system: HCI-008 (organoid from a HER2-enriched breast cancer xenograft)
Method: as §1

[4] = test system: HCI-003.E2 (organoid from an ER-positive breast cancer xenograft)
Method: as §1

[5] = test system: HCI-024 (organoid from a breast cancer xenograft)
Method: as §1

[6] = test system: HCI-025 (organoid from a breast cancer xenograft)
Method: as §1

O=c1[nH]cc(F)c(=O)[nH]1 [5-fluorouracil]
CTG-3D luminescence at 96 h
Settings | 12.5 pM | 0.00025 µM | 0.005 µM | 0.1 µM | 1 µM | 10 µM | 100 µM | 625 fM
[1] | 4.33 ± 1.4 | 4.19 ± 1.4 | 4.49 ± 1.5 | 4.31 ± 1.3 | 4.4 ± 1.4 | 4.03 ± 1.1 | 3.35 ± 0.75 | 4.34 ± 1.3
[4] | 2.25 ± 0.87 | 2.06 ± 0.55 | 1.93 ± 0.35 | 2.08 ± 0.4 | 1.85 ± 0.5 | 1.87 ± 0.53 | 0.993 ± 0.17 | 2.19 ± 0.32

CTG-3D luminescence at 96 h
Settings | 12.5 pM | 0.00025 µM | 0.005 µM | 0.1 µM | 1 µM | 10 µM | 100 µM | 625 fM
[2], days in culture: 240 | 1.75 | 1.08 | 1.16 | 0.972 | 1.31 | 0.84 | 0.903 | 1.74
[2], days in culture: 260 | 2.43 | 1.07 | 2.1 | 1.43 | 1.62 | 1.42 | 1.14 | 1.09
[2], days in culture: 269 | 1.52 | 1.48 | 1.32 | 1.97 | 1.62 | 2.03 | 1.46 | 1.77
[2], days in culture: 327 | 1.6 | 1.41 | 2.11 | 1.91 | 1.54 | 1.38 | 1.51 | 1.69
[2], days in culture: 346 | 1.42 | 1.55 | 1.28 | 1.28 | 1.41 | 1.26 | 1.3 | 1.12
[2], days in culture: 364 | 1.68 | 1.19 | 1.35 | 1.35 | 1.13 | 1.21 | 0.902 | 1.55
[3], days in culture: 228 | 1.95 ± 0.28 | 2.08 ± 0.21 | 1.74 ± 0.25 | 1.52 ± 0.27 | 1.51 ± 0.32 | 1.51 ± 0.029 | 0.917 ± 0.042 | 1.88 ± 0.097
[3], days in culture: 244 | 1.38 | 1.81 | 2.06 | 1.88 | 1.6 | 1.53 | 1.03 | 2.2
[5], days in culture: 105 | 1.58 | 1.5 | 1.45 | 1.66 | 1.59 | 1.53 | 0.681 | 2.03
[5], days in culture: 122 | 2.23 | 2.19 | 1.64 | 1.97 | 1.98 | 2.04 | 0.857 | 3.11
[5], days in culture: 163 | 2.3 | 2.61 | 1.89 | 2.32 | 2.29 | 1.9 | 1.21 | 2.13
[6], days in culture: 172 | 2.59 | 1.93 | 3.91 | 1.56 | 1.55 | 0.982 | 0.597 | 2.53
[6], days in culture: 209 | 2.04 | 2.56 | 1.99 | 1.52 | 1.7 | 1.25 | 0.569 | 1.37
[6], days in culture: 218 | 1.7 | 1.9 | 1.92 | 1.65 | 1.37 | 1.61 | 0.855 | 1.86
